Data reported in patent US20230339896A1, “HPK1 INHIBITORS AND USES THEREOF” (QILU REGOR THERAPEUTICS INC., priority 2020, published 2023).

Tests used:
[1] = Metabolic stability in liver microsomes, rat (RLM); format: in vitro ADME, Sprague Dawley Rat; conditions: 1 µM compound, NADPH; for half-life at 1 µM: Sprague Dawley, rat, liver microsomes, pH 7.4, 0.5 mg/mL protein, read-out: Metabolic Stability T½ (min), RLM
Method: This assay is for determining the stability of test compound in liver microsomes. The study will be conducted in accordance with International Bioethical Standards “World Medical Association Declaration of
Human, Sprague Dawley Rat, CD-1 mouse, Beagle Dog and Cynomolgus Monkey Liver Microsomes samples purchased from BD Gentest or RILD.
0.1 M Potassium phosphate buffer, pH 7.4: • Buffer A: 1.0 L of 0.1 M monobasic Potassium Phosphate buffer containing 1.0 mM EDTA • Buffer B: 1.0 L of 0.1 M Dibasic Potassium Phosphate buffer containing 1.0 mM EDTA • Buffer C (K-phosphate buffer): 0.1 M Potassium Phosphate buffer, 1.0 mM EDTA, pH 7.4 by titrating 700 mL of buffer B with buffer A while monitoring the pH meter
• Prepare 3× test compound or positive control solutions: 500 µM spiking solution: add 10 µL of 10 mM DMSO stock solution into 190 µL ACN. • 1.5 µM spiking solution in microsomes (0.75 mg/mL): add 1.5 µL of 500 µM spiking solution and 18.75 µL of 20 mg/mL liver microsomes into 479.75 µL of K-phosphate buffer.
Add 30 µL of 1.5 µM spiking solution containing 0.75 mg/ml microsomes solution to the wells designated for 45 min, 30 min, 15 min, 5 min and 0 min. Pre-incubate the plate at 37° C. for 5 minutes.
Add 15 µL of NADPH stock solution (6 mM) to all of the wells, and start timing. Immediately, add 135 µL of ACN containing IS to the wells designated as Time 0.
At 5 min, 15 min, 30 min and 45 min, add 135 µL of ACN containing IS to the wells, respectively.
After quenching, centrifuge the reaction mixtures at 3220 x g for 10 min.
Transfer 50 µL of the supernatant from each well into a 96-well sample plate containing 50 µL of ultra pure water (Millipore) for LC/MS analysis.
The % parent remaining at each incubation time point is calculated by comparing to the peak area ratio (compound peak area/internal standard peak area) at T0 (0 minute incubation). The ln peak area ratio is plotted against time and the gradient of the line is determined. The half-life and metabolism of compounds is calculated based upon a natural log linear regression of the relative peak areas vs time. The half-life and intrinsic clearance (Clint) in microsomes are calculated using the equations below. • In Vitro T ½ (min) = 0.693/Elimination rate of constant (k) • Clint (µL/min/mg of microsomal protein) = (0.693 / In Vitro T ½) (Incubation Volume/ mg of microsomes)

[2] = MDCK permeability assay; format: in vitro ADME; conditions: dog, MDCK, pH 7.4
Method: This assay is for generating screening data only, and to estimate the intestinal absorption potential of drug candidates. The study will be conducted in accordance with International Bioethical Standards “World MedicalAssociation Declaration of Helsinki.
Cell line: • ▪ MDCK (ATCC), or MDCK MDR1 (NKI).
Prepare donor buffer: • For A-to-B direction: • ✔ HBSS buffer with 0.3% DMSO and 5 µM Lucifer Yellow (LY): add 150 µL DMSO and 125 µL LY (2 mM) into 50 mL HBSS buffer (pH 7.4). • ✔ HBSS buffer with 0.1% DMSO and 5 µM Lucifer Yellow (LY): add 50 µL DMSO and 125 µL LY (2 mM) into 50 mL HBSS buffer (pH 7.4). • ✔ HBSS buffer with 5 µM Lucifer Yellow (LY): add 125 µL LY (2 mM) into 50 mL HBSS buffer (pH 7.4). • For B-to-A direction: • ✔ HBSS buffer with 0.3% DMSO: add 150 µL DMSO into 50 mL HBSS buffer (pH 7.4). • ✔ HBSS buffer with 0.1% DMSO: add 50 µL DMSO into 50 mL HBSS buffer (pH 7.4). • ✔ HBSS buffer without DMSO. • Prepare receiver buffer: • For A-to-B direction: Prepare HBSS buffer with 0.4% DMSO: add 200 µL DMSO into 50 mL HBSS buffer (pH 7.4) • For B-to-A direction: Prepare HBSS buffer with 0.4% DMSO and 5 µM LY: add 200 uL DMSO and 125 µL LY (2 mM) into 50 mL HBSS buffer (pH 7.4) • Controls: • Prepare 10 mM stock concentrations of compound in DMSO and Lucifer Yellow in assay buffer using the following formula: • (Actual Weight/Molecular Weight)/mL solvent =10 mM • Reference compound: Erythromycin, Metoprolol, Atenolol
MDCK assay plates are seeded 3-4 days prior to running the assay. 24-well plates are seeded at a cell density of 0.88 × 10^5/well in a 400 µL apical chamber volume (2.2×10^5 /mL) with a 25 mL volume of growth medium to the 24-well basal chamber. Assay plates are generally provided with a growth medium change 24 hours prior to the assay.
MDCK assay plates are rinsed with HBSS+ buffer prior to running the assay. After rinsing, fresh HBSS+ is added to the assay plate in a 400 µL apical chamber volume and a 0.8 mL HBSS+ basal chamber volume. Measure the electrical resistance across the monolayer using the Millicell ERS system ohm meter. (The cells will be used if TEER is higher than 100 ohm*cm^2).
Preparation of the cell plates: • Remove the buffer from the apical side and basolateral side. Add 600 µL of donor solution (for A-to-B) or 500 µL of receiver solution (for B-to-A) to the apical wells based on plate map. • A fresh basolateral plate is prepared by adding 800 µL of receiver solution (for A-to-B) or 900 µL of donor solution (B-to-A) to the well of a new 24-well plate. • Put the apical plate and basolateral plate into 37° C. incubator.
Preparation of analytical plate: • After 5 min, transfer 100 µL of samples from all donors (for both A-to-B and B-to-A) into appropriate wells of a sample plate for D0. And transfer 100 µL of samples from all apical chambers (the donor of A-to-B and receiver of B-to-A) into appropriate wells of a microplate for Lucifer Yellow D0 (D0 LY) • Lay the apical plate to the basolateral plate to start transport process. • At 90 min, separate the apical and basolateral plates and transfer 100 µL of samples from all donors (for both A-to-B and B-to-A) into appropriate wells of a new sample plate for D90, and transfer 200 µL of samples from all receivers into appropriate wells of a sample plate for R90. Transfer 100 µL of samples from all basolateral chambers (receiver of A-to-B and donor of B-to-A) into appropriate wells of a new microplate for Lucifer Yellow R90 (R90 LY). • Determine LY permeability by reading D0 LY and R90 LY at an excitation wavelength of 485 nm and an emission wavelength of 535 nm using a fluorescent plate reader. • Sample preparation: • For receiver solution: 60 µL of sample + 60 µL ACN with IS (200 ng/mL Osalmid) • For donor solution: 6 µL of sample + 54 µL 0.4% DMSO/HBSS + 60 µL ACN with IS (200 ng/mL Osalmid) […]

half-life at 1 µM [1] [min]	Metabolic Stability T½ (min), RLM ([1]; 0.5 mg/mL protein)	Papp A→B at 90 min [2] [×10⁻⁶ cm/s]	Papp B→A at 90 min [2] [×10⁻⁶ cm/s]	Compound
38.4				COc1cc2c(cc1Nc1ncc(Cl)c(N3CC(C)(CC(=O)O)c4ccccc43)n1)CN(C)CC2 (single isomer, unassigned) [Example 2, (R)-2-(1-(5-chloro-2-((6-methoxy-2-methyl-1,2,3,4-tetrahydroisoquinolin-7-yl)amino)pyrimidin-4-yl)-3-methylindolin-3-yl)acetic acid or (S)-2-(1-(5-chloro-2-((6-methoxy-2-methyl-1,2,3,4-tetrahydroisoquinolin-7-yl)amino)pyrimidin-4-yl)-3-methylindolin-3-yl)acetic acid]
	RLM: 23 min			CN1CCc2cc(F)c(Nc3ncc(Cl)c(N4C[C@](C)(CC(=O)O)c5ccccc54)n3)cc2C1 (single isomer, unassigned) [Example 5, (R)-2-[1-[5-chloro-2-[(6-fluoro-2-methyl-3,4-dihydro-1H-isoquinolin-7-yl)amino]pyrimidin-4-yl]-3-methyl-indolin-3-yl]acetic acid or (S)-2-[1-[5-chloro-2-[(6-fluoro-2-methyl-3,4-dihydro-1H-isoquinolin-7-yl)amino]pyrimidin-4-yl]-3-methyl-indolin-3-yl]acetic acid]
		7.7	41.1	CN1CCc2cc(F)c(Nc3ncc(Cl)c(N4CC(C)(CC(=O)O)c5ccccc54)n3)cc2C1 (stereo not drawn) [Example 4, 2-(1-(5-chloro-2-((6-fluoro-2-methyl-1,2,3,4-tetrahydroisoquinolin-7-yl)amino)pyrimidin-4-yl)-3-methylindolin-3-yl)acetic acid]

Further lines, the compound ahead of its results:

Compound	half-life at 1 µM [1] [min]	Metabolic Stability T½ (min), RLM ([1]; 0.5 mg/mL protein)	Papp A→B at 90 min [2] [×10⁻⁶ cm/s]	Papp B→A at 90 min [2] [×10⁻⁶ cm/s]
COc1cc2c(cc1Nc1ncc(Cl)c(N3CC(C(=O)O)c4ccccc43)n1)CN(C)CC2 (stereo not drawn) [Compound 7, reference compound]	4260		3.2	9.4
COc1cc2c(cc1Nc1ncc(Cl)c(N3CC(CC(=O)O)c4ccccc43)n1)CN(C)CC2 (stereo not drawn) [Compound 8, reference compound]	48.2		4.5	38.5
COc1cc2c(cc1Nc1ncc(Cl)c(N3CC(C)(CC(=O)O)c4ccc(F)cc43)n1)CN(C)CC2 (stereo not drawn) [Compound 10, reference compound]	17		2.6	58.9
COc1cc2c(cc1Nc1ncc(Cl)c(N3CC(C)(CC(=O)O)c4ccccc43)n1)CN(C)CC2 (stereo not drawn) [Example 1, 2-(1-(5-chloro-2-((6-methoxy-2-methyl-1,2,3,4-tetrahydroisoquinolin-7-yl)amino)pyrimidin-4-yl)-3-methylindolin-3-yl)acetic acid]			2.2	47.8
